We go through two compounds from patent publication US20090325891A1, “Cartilage regeneration-promoting agent” (EISAI FOOD & CHEMICAL CO., LTD., priority 2006, published 2009).

Series [1] is described as follows: Observation of general conditions and body weight. The class given is in vivo, rabbit. How it is done: After the formation of injury to articular cartilage, for the HT group, the product containing 20% by mass of hydroxytyrosol obtained in Production Example 1 was dissolved in tap water and administered using a water bottle at a rate of 500 mg/kg (100 mg/kg of hydroxytyrosol) per day for 21 days. After making sure that all of the water containing the drug was taken in, rabbits were fed with sterile tap water. The control was fed with sterile tap water ad libitum.
During the experimental period, diarrhea, appetite, and hair gloss or coat color of each rabbit were observed. In addition, body weight was measured per week.
In the same way as in Example 1, the cartilage regeneration-promoting effects were investigated with respect to hydroxytyrosol (100 mg/kg per day, HT group) and with respect to glucosamine hydrochloride (800 mg/kg per day, hereinafter, GAH group) for comparison. The control group was set in the same way as in Example 1.

The test system of series [2] is Rabbit chondrocytes. Description: Glycosaminoglycan production in rabbit chondrocytes. Format: cell-based. Conditions: per number of viable cells; 12 days culture; hydroxytyrosol 100 ng/ml, glucosamine hydrochloride 4 μg/ml. How it is done:
The promoting effects of hydroxytyrosol and glucosamine hydrochloride on the production of glycosaminoglycan and on the production of hyaluronic acid in chondrocytes were evaluated. Rabbit chondrocytes (rabbit articular chondrocytes in primary culture, F-8, Cell Garage Co., Ltd.) were washed with phosphate buffered saline solution, and then cells were released with 0.05% trypsin-EDTA solution. The released chondrocytes were cultured in DMEM medium containing 10% FBS, 100 U/ml penicillin, 100 μg/ml streptomycin, 100 μM trisodium ascorbyl-2-phosphate (available from SIGMA-ALDRICH Corp.), and 25 mM HEPES (available from Invitrogen Corporation) at 37° C. in a humidified condition with 5% CO2. […] For each group after 12 days culture, the number of viable cells was determined by WST assay. The percentage of the amount of glycosaminoglycan or hyaluronic acid produced by each experimental group, relative to the control group, was calculated according to the following formula: ((amount produced by each experimental group/number of cells of each experimental group)×100)/(amount produced by the control group/number of cells of the control group). The amount of glycosaminoglycan produced by the above-mentioned cultured cells was measured using a measurement kit (acid mucopolysaccharide quantification kit, available from Cell Garage Co., Ltd.).

The test system of series [3] is Rabbit chondrocytes. Description: Hyaluronic acid production in rabbit chondrocytes. Format: cell-based. Conditions: culture supernatant, per number of viable cells; 12 days culture; hydroxytyrosol 100 ng/ml, glucosamine hydrochloride 4 μg/ml. How it is done: The promoting effects of hydroxytyrosol and glucosamine hydrochloride on the production of glycosaminoglycan and on the production of hyaluronic acid in chondrocytes were evaluated. Rabbit chondrocytes (rabbit articular chondrocytes in primary culture, F-8, Cell Garage Co., Ltd.) were washed with phosphate buffered saline solution, and then cells were released with 0.05% trypsin-EDTA solution. The released chondrocytes were cultured in DMEM medium containing 10% FBS, 100 U/ml penicillin, 100 μg/ml streptomycin, 100 μM trisodium ascorbyl-2-phosphate (available from SIGMA-ALDRICH Corp.), and 25 mM HEPES (available from Invitrogen Corporation) at 37° C. in a humidified condition with 5% CO2. […] For each group after 12 days culture, the number of viable cells was determined by WST assay. The percentage of the amount of glycosaminoglycan or hyaluronic acid produced by each experimental group, relative to the control group, was calculated according to the following formula: ((amount produced by each experimental group/number of cells of each experimental group)×100)/(amount produced by the control group/number of cells of the control group). The supernatant of cultured cells of each group was collected, and the amount of hyaluronic acid produced was measured using a measurement kit (hyaluronic acid measurement kit, available from Seikagaku Corporation).

Structures are written as SMILES.

`OCCc1ccc(O)c(O)c1` [HT group, 2-(3,4-Dihydroxyphenyl)ethanol]: in series [1] (rabbit, in vivo), the “Body weight changes vs control group” value is listed as “almost the same as that of the control group” and the “body weight change during test period vs control group” value is “significant difference was not observed”. The “general conditions (diarrhea, appetite, hair gloss or coat color)” value in series [1] (rabbit, in vivo, 100 mg/kg) is “marked change was not observed”. In addition, the “amount of glycosaminoglycan produced compared to the control group” value with Rabbit chondrocytes [2] came to 119.8%. In the series on Rabbit chondrocytes [3], the “amount of hyaluronic acid produced compared to the control group” value came out at 82.9%.

Regarding `Cl.N[C@H]1C(O)O[C@H](CO)[C@@H](O)[C@@H]1O` (stereo partly drawn) [GAH group, glucosamine hydrochloride, reference compound], the “Body weight changes vs control group” value in series [1] (Example 2) is reported as “almost the same as that of the control group”. Moreover, in series [1] (Example 2, HT 100 mg/kg per day, GAH 800 mg/kg per day), the general conditions entry is given as “change in general conditions was not observed”. Further, in the series on Rabbit chondrocytes [2], the “amount of glycosaminoglycan produced compared to the control group” value turned out to be 147.0%. Besides, the “amount of hyaluronic acid produced compared to the control group” value in the series on Rabbit chondrocytes [3] was found to be 127.4%.
